From patent publication EP0004261A2, “Imidazole derivatives, method for their preparation and pharmaceutical compositions containing them” (F. HOFFMANN-LA ROCHE & CO. Aktiengesellschaft, priority 1978, dated 1979) come the findings set out here.

Where only a bound is given, the exact number is not on record here.

The subject of this assay is Bastardhunde. As to the kind of experiment: Coronary-dilating / haemodynamic effect in anaesthetised open-chest dogs (electromagnetic flowmeter, aortic catheter, tachograph). The conditions noted are these: Dosis i.v. 1 mg/kg in Propylenglykol, n = 3.
Where [1] appears, read: maximal effect in percent of baseline.

Regarding “2-Aethyl-N^5(oder N^4)-nitro-1-(2,3,5-tri-O-nitro-ß-D-ribofuranosyl)imidazol-4,5-dicarboxamid [mit R1 = CH3; R2 = H]”, where the note is “duration of effect”, the “BP [min] (arterieller Blutdruck, Wirkungsdauer)” value was greater than 60 min; the “CABF [min] (Coronarfluss, Wirkungsdauer)” value is reported as greater than 60 min; the “HR [min] (Herzfrequenz, Wirkungsdauer)” value is recorded as greater than 60 min; the “PL [min] (Druckgradient, Wirkungsdauer)” value is on record as 60 min. Further, under setting [1], the “BP Δ % (arterieller Blutdruck)” value is -32%; the “CABF Δ % (Coronarfluss)” value is -19%; the “HR Δ % (Herzfrequenz)” value is -6%; the “PL Δ % (Druckgradient, Aortadruck minus peripherem Coronardruck)” value is given as -24%.
